# Article PMC11726359, “Discovery of Rezatapopt (PC14586), a First-in-Class, Small-Molecule Reactivator of p53 Y220C Mutant in Development” (ACS Medicinal Chemistry Letters, 2024)
# What was measured:
# [1] = target: T1, recombinant His-tag Y220C p53 DNA binding domain (Homo sapiens, UniProt P04637, Y220C); assay: TR-FRET DNA binding assay (SC150); type: biochemical; settings: concentration required to increase DNA binding by 1.5-fold
# T1 construct: Y220C p53 DBD protein (amino acids #94-312); made in house
# Description: At the outset of our hit generation campaign, several small molecules targeting the p53 Y220C mutant protein were identified. Two notable examples, supported by crystallographic data, were the compounds from the carbazole series[6] (PhiKan83) and the iodophenol series[7] (PK1596) (Figure 1). To assess the in vitro potency of the p53 Y220C reactivators, a time-resolved fluorescence resonance energy transfer (FRET) assay was developed. In this assay, recombinant His-tag Y220C p53 DNA binding domain binds to biotin-labeled consensus DNA, and the FRET signal is measured between the allophycocyanin-conjugated anti-His-tag antibody and europium-conjugated streptavidin. The […] concentration required to increase DNA binding by 1.5-fold (SC150) could then be determined. The carbazole compound (PhiKan83) enhanced DNA binding with an SC150 of 37.2 μM. […]
# Time-Resolved Fluorescence Resonance Energy Transfer (TR-FRET) Assay
# DNA binding activity was measured by the TR-FRET assay. In this assay, the recombinant His6-tag Y220C p53 DNA binding domain (DBD) protein binds to biotin labeled consensus DNA. The binding of recombinant His6-tag Y220C p53 DBD protein and biotin-labeled consensus DNA is detected by the fluorescence resonance energy transfer (FRET) between allophycocyanin (APC) conjugated anti-His6 tag antibody and Europium-(Eu) conjugated Streptavidin. Test compounds, at 2 mM stock in DMSO, were diluted t hr e e-f ol d in serial dilutions in DMSO and 1.2 µL per well were added into 384-well polypropylene black plates (NUNC). Subsequently, 30 µL per well of 181 nM recombinant His6-tag Y220C p53 DBD protein (amino acids #94-312) and 9.1 nM of APC conjugated anti-His6 tag antibody (Columbia Biosciences) in ice-cold Assay Buffer 1 (50 mM Tris-HCl, pH 7.4, 75 mM KCl, 0.75 mM DTT and 0.2 mg/mL bovine serum albumin [BSA]) was added. As a background control, 30 µL of Assay Buffer 1 containing 9.1 nM of APC anti-His6 antibody (no Y220C protein) was also added into a second set of serial diluted compound plates. The samples were centrifuged at 1,200 rpm (Eppendorf 5810R plate centrifuge) for 1 minute and incubated at room temperature (20 °C) for 15 min. The samples were then incubated at 27 °C in a water bath for 48 min. Afterwards, 5 µL per well of 145 nM biotin labeled oligonucleotide from a consensus DNA p53 response element (a DNA duplex with 5’ to 3’sequence of […]
# and biotin attached to the 3’ end of the complementary DNA) and 8.8 nM Eu-conjugated streptavidin (Columbia Biosciences) in Assay Buffer 2 (50 mM Tris-HCl, pH 7.4, 75 mM KCl and 0.2 mg/mL BSA) were added. The samples were centrifuged at 1,200 rpm for 1 min and incubated at room temperature (20 °C) for 20 min. Assay signals were monitored by reading excitation at 340 nm, and emission fluorescence at 615 and 665 nm, on an Envision reader (Perkin El mer). Normalized TR -FRET assay signal (Rn) was calculated by the formula:
# Rn = [(A − B a − C × (D − Bd))/(D − Bd)] × (Dc − B d),
# C = (Ac − B a)/(Dc − B d), […]
# [2] = tested on: NUGC-3, gastric cancer cell line with a TP53 Y220C mutation; assay: MTT cell proliferation assay; type: cell-based, human; settings: for IC50: Homo sapiens, NUGC-3, 120 h, NUGC-3 cells, five days incubation
# Experimental: We also evaluated the effects of these compounds on the growth and viability of four cancer cell lines in vitro. Two of the cell lines (NUGC-3, gastric cancer cell line with a TP53 Y220C mutation and T3M-4, pancreatic carcinoma cell line) have the TP53 Y220C mutation leading to the p53 Y220C mutant protein; SJSA-1 is a p53 WT cell line, and NUGC-3-KO is an isogenic p53 knockout cell line.[11] After incubating the cells with the compounds for five days, cell viability was measured using the 3-(4,5-dimethylthiazol-2-yl)-2,5-diphenyltetrazolium bromide (MTT) assay.
# C = (Ac − B a)/(Dc − B d),
# Prism (GraphPad) or XLfit software (IDBS).
# Cells were seeded at an appropriate
# Compounds were tested at eight concentrations with 2-fold serial dilutions. […]
# with a reference wavelength of 650 nm. […]
# untreated cells (control). […]
# Caco-2 permeability = type: in vitro ADME; settings: human
# Description: Significant efforts were dedicated to the optimization of compound 13, and a successful approach involved fluorine substitution of the piperidine ring. Fluorine substitution often plays a crucial role in medicinal chemistry, exerting a substantial impact on the characteristics of drug molecules.[12],[13] Incorporation of fluorine atoms can yield diverse effects and improvements in a drug’s pharmacological properties. In the case of the piperidine ring in compound 13, several key effects of fluorine substitution were predicted, including enhanced hydrogen bonding with Threonine-150, increased conformational rigidity of the piperidine ring, and reduced basicity. […] We postulated that the fluorine atom on the piperidine ring of compound 22, which preferentially stays in the axial position, can form a better hydrogen bond with the N-H group of Threonine-150. The enhanced cellular potency of compound 22 can be attributed to the enhanced permeability. […] Recently, insights into the conformational behavior of cis-fluorinated piperidines were reported.[14]
# [3] = Pharmacokinetic study in mice; settings: 50 mg/kg
# NUGC-3 tumor xenografts = assay: NUGC-3 tumor xenograft efficacy in nude mice; type: in vivo, mouse; settings: 150 mg/kg, same xenograft model
# Experimental: Compound 26 (rezatapopt; PC14586), which had the most favorable plasma exposure, was evaluated for its ability to inhibit the growth of NUGC-3 tumor xenografts in nude mice.
# Study of C ompound 26 in NUGC-3 Xenograft
# Female Balb/c nude mice, aged 4 to 6 weeks, were obtained from Envigo (Madison, WI). All mice were housed at the PMV Pharmaceuticals Vivarium. Mouse care and experimental procedures adhered to institutional guidelines for ethical use, with all research protocols approved by the Institutional Animal Care and Use Committees of PMV Pharmaceuticals. The mice were maintained at ambient temperatures of 68–72 °F, with 30–70% humidity, and a 12 -hour dark/light cycle.
# NUGC-3 cells were resuspended at a concentration of 1×10^7 viable cells/mL in a 50:50 mixture of phosphate-buffered saline and Matrigel Matrix (Corning). Subsequently, 100 µL of the suspension was injected subcutaneously into the dorsal flankof the mice . Mice were selected and randomized into treatment groups based on tumor size.
SC150 ([1]; Table 3) [nM],IC50 ([2]; Table 3) [nM],SC150 ([1]; Table 2) [nM],IC50 ([2]; Table 2) [nM],"Mouse PK Exposure AUC0-last ([3]; Table 3, PO) [ng·h/mL]","Mouse PK Exposure Cmax ([3]; Table 3, PO) [ng/mL]",Structure (SMILES),other results
–,325,8,300,–,–,"COc1cc(S(C)(=O)=O)ccc1NCC#Cc1cc2c(N[C@@H]3CCN(C)C[C@@H]3F)cccc2n1CC(F)(F)F [Compound 22, N-[(3S,4R)-3-fluoro-1-methyl-4-piperidyl]-2-[3-(2-methoxy-4-methylsulfonyl-anilino)prop-1-ynyl]-1-(2,2,2-trifluoroethyl)indol-4-amine]","fold increased potency compared with compound 13 ([2]; MTT assay, vs compound 13): approximately 7 fold; Papp (Caco-2 permeability): 19.9 ×10⁻⁶ cm/s; Mouse PK Exposure AUC0-last ([3]; Table 2, PO): 12567 ng·h/mL; Mouse PK Exposure Cmax ([3]; Table 2, PO): 2103 ng/mL"
–,–,20,2300,–,–,"COc1cc(S(C)(=O)=O)ccc1NCC#Cc1cc2c(N[C@H]3CCN(C)C[C@H]3F)cccc2n1CC(F)(F)F [Compound 21, N-[(3R,4S)-3-fluoro-1-methyl-4-piperidyl]-2-[3-(2-methoxy-4-methylsulfonyl-anilino)prop-1-ynyl]-1-(2,2,2-trifluoroethyl)indol-4-amine]","Mouse PK Exposure AUC0-last ([3]; Table 2, PO): 23233 ng·h/mL; Mouse PK Exposure Cmax ([3]; Table 2, PO): 2353 ng/mL"
7,531,–,–,3261,807,"COc1cc(C(=O)NC2CCOCC2)ccc1NCC#Cc1cc2c(N[C@@H]3CCN(C)C[C@@H]3F)cccc2n1CC(F)(F)F [Compound 27, 4-((3-(4-(((3S,4R)-3-fluoro-1-methylpiperidin-4-yl)amino)-1-(2,2,2-trifluoroethyl)-1H-indol-2-yl)prop-2-yn-1-yl)amino)-3-methoxy-N-(tetrahydro-2H-pyran-4-yl)benzamide]",–
–,–,20,3000,–,–,"COc1cc(S(C)(=O)=O)ccc1NCC#Cc1cc2c(N[C@@H]3CCN(C)C[C@H]3F)cccc2n1CC(F)(F)F (racemic) [Compound 19, Rac-N-[(3R,4R)-3-fluoro-1-methyl-4-piperidyl]-2-[3-(2-methoxy-4-methylsulfonyl-anilino)prop-1-ynyl]-1-(2,2,2-trifluoroethyl)indol-4-amine]",–
11,990,–,–,57882,27700,"COc1cc(C(=O)O)ccc1NCC#Cc1cc2c(N[C@@H]3CCN(C)C[C@@H]3F)cccc2n1CC(F)(F)F [Compound 24, 4-((3-(4-(((3S,4R)-3-fluoro-1-methylpiperidin-4-yl)amino)-1-(2,2,2-trifluoroethyl)-1H-indol-2-yl)prop-2-yn-1-yl)amino)-3-methoxybenzoic acid]",tumor growth inhibition (NUGC-3 tumor xenografts): 54%
5,1160,–,–,–,–,"COc1cc(C(=O)NC2CCN(C)CC2)ccc1NCC#Cc1cc2c(N[C@@H]3CCN(C)C[C@@H]3F)cccc2n1CC(F)(F)F [Compound 31, 4-[3-[4-[[(3S,4R)-3-fluoro-1-methyl-4-piperidyl]amino]-1-(2,2,2-trifluoroethyl)indol-2-yl]prop-2-ynyl-amino]-3-methoxy-N-(1-methyl-4-piperidyl)benzamide]",–

# The next lines start with the compound.
Structure (SMILES),SC150 ([1]; Table 3) [nM],IC50 ([2]; Table 3) [nM],SC150 ([1]; Table 2) [nM],IC50 ([2]; Table 2) [nM],"Mouse PK Exposure AUC0-last ([3]; Table 3, PO) [ng·h/mL]","Mouse PK Exposure Cmax ([3]; Table 3, PO) [ng/mL]",other results
"COc1cc(C(=O)N2CCN(C)CC2)ccc1NCC#Cc1cc2c(N[C@@H]3CCN(C)C[C@@H]3F)cccc2n1CC(F)(F)F [Compound 30, [4-[3-[4-[[(3S,4R)-3-fluoro-1-methyl-4-piperidyl]amino]-1-(2,2,2-trifluoroethyl)indol-2-yl]prop-2-ynyl-amino]-3-methoxy-phenyl]-(4-methylpiperazin-1-yl)methanone]",9,791,–,–,–,–,–
"COc1cc(C(=O)NCC(O)CO)ccc1NCC#Cc1cc2c(N[C@@H]3CCN(C)C[C@@H]3F)cccc2n1CC(F)(F)F (stereo partly drawn) [Compound 29, N-(2,3-dihydroxypropyl)-4-[3-[4-[[(3S,4R)-3-fluoro-1-methyl-4-piperidyl]amino]-1-(2,2,2-trifluoroethyl)indol-2-yl]prop-2-ynylamino]-3-methoxy-benzamide]",8,574,–,–,117,54,–
"COc1cc(S(N)(=O)=O)ccc1NCC#Cc1cc2c(N[C@@H]3CCN(C)C[C@@H]3F)cccc2n1CC(F)(F)F [Compound 23, 4-((3-(4-(((3S,4R)-3-fluoro-1-methylpiperidin-4-yl)amino)-1-(2,2,2-trifluoroethyl)-1H-indol-2-yl)prop-2-yn-1-yl)amino)-3-methoxybenzenesulfonamide]",9,261,–,–,8066,1310,–
"COc1cc(S(C)(=O)=O)ccc1NCC#Cc1cc2c(N[C@@H]3CCN(C)C[C@@H]3F)cccc2n1CC(F)(F)F (racemic) [Compound 20, Rac-N-[(3S,4R)-3-fluoro-1-methyl-4-piperidyl]-2-[3-(2-methoxy-4-methylsulfonyl-anilino)prop-1-ynyl]-1-(2,2,2-trifluoroethyl)indol-4-amine]",–,–,9,700,–,–,fold higher potency in the MTT assay ([2]; among the two pairs of stereoisomers from fluorine substitution of compound 13): over 3 fold
"COc1cc(C(N)=O)ccc1NCC#Cc1cc2c(N[C@@H]3CCN(C)C[C@@H]3F)cccc2n1CC(F)(F)F [Compound 25, 4-[3-[4-[[(3S,4R)-3-fluoro-1-methyl-4-piperidyl]amino]-1-(2,2,2-trifluoroethyl)indol-2-yl]prop-2-ynyl-amino]-3-methoxy-benzamide]",8,446,–,–,39774,4473,–
